Read-outs that look alike come from different tables or passages of the source.
Tests used:
[1] = in vitro
[2] = test system: Influenza virus A/WS/33 (H1N1); assay: microbe, parasite or virus in culture; format: cell-based; details: H1N1, MDCK, read-out: EC50 (mean ± SD)
[3] = target: influenza virus polymerase (PB1, PB2, NP, PA from A/California/04/2009 (H1N1) pdm09) (Influenza A virus, UniProt C3W5R8+C3W5R9); format: cell-based
[4] = test system: HBV; assay: microbe, parasite or virus in culture; format: cell-based; details: Hepatitis B virus, HepG2.2.15, read-out: EC50 for Virus
[5] = in vitro; details: rhesus monkey
[6] = target: op-kappa (Homo sapiens, UniProt P41145); assay: cell-based
Chain of op-kappa (P41145 whole entry): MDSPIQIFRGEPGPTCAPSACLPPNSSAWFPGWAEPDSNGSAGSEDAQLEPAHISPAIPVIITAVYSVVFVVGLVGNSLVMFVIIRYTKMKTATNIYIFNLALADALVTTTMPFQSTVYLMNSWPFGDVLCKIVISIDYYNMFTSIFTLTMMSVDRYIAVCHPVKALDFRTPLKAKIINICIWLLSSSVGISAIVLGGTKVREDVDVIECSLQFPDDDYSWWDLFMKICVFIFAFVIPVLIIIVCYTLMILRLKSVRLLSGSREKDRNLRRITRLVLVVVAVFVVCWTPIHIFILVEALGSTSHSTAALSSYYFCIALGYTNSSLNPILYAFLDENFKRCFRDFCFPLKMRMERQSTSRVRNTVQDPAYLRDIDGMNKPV

[7] = target: op-delta (Homo sapiens, UniProt P41143); assay: cell-based
Chain of op-delta (P41143 whole entry): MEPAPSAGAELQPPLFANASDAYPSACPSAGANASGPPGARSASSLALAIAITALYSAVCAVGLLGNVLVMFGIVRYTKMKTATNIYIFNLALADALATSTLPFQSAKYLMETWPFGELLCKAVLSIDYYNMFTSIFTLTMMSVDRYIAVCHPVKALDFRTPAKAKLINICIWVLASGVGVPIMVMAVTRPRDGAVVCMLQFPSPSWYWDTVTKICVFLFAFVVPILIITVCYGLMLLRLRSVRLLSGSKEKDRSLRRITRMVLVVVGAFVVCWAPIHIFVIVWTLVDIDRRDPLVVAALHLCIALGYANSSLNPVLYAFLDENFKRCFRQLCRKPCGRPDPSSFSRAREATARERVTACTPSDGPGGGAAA

[8] = test system: RSV long; assay: microbe, parasite or virus in culture; format: cell-based, respiratory syncytial virus; details: human respiratory syncytial virus, HEp-2, read-out: EC50 for Virus
[9] = target: 5HT2A (Homo sapiens, UniProt P28223); assay: cell-based
Chain of 5HT2A (P28223 whole entry): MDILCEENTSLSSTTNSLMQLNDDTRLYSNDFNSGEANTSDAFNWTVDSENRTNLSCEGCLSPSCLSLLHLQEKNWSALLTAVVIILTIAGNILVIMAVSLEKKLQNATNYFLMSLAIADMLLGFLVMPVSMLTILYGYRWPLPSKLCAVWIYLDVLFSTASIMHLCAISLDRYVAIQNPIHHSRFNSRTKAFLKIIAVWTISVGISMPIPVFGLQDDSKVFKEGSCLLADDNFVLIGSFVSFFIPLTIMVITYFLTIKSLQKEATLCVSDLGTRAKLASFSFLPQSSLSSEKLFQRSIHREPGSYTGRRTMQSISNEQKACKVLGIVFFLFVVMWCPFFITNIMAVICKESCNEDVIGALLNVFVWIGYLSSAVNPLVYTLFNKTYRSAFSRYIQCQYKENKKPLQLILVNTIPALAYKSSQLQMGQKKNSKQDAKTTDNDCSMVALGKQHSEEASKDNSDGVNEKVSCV

[10] = target: Beta2 (Homo sapiens, UniProt P07550); assay: cell-based
Chain of Beta2 (P07550 whole entry): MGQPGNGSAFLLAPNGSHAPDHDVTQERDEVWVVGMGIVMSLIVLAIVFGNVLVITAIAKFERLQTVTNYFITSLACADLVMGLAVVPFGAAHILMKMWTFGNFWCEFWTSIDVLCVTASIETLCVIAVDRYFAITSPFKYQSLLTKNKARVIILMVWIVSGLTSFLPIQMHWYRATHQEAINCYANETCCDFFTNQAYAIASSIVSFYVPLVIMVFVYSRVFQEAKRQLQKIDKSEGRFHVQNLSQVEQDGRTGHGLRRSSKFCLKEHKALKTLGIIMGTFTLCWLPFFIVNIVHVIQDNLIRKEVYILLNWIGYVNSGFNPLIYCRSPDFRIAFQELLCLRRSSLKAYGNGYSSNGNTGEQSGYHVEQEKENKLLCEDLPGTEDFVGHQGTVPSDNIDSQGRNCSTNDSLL

[11] = test system: AD2; format: cell-based, human
[12] = 10,000 nM, read-out: Inhibition at Maximum Concentration (%)

Question: For O=C(O)[C@H]1C2CCC(CC2)[C@@H]1Nc1nc(-c2n[nH]c3ncc(F)cc23)nc(C2CC2)c1F [ZSP1273], which CC50 [1] is on record?
Answer: > 10000 nM

Question: What about the EC50 [2] of the same compound?
Answer: 0.032 ± 0.01 nM

Question: What about the IC50 ([3]; read-out: IC50, Mean ± SEM) of the same compound?
Answer: 0.562 ± 0.116 nM

Question: And the IC50 ([3]; read-out: IC50, experiment 1)?
Answer: 0.533 nM

Question: What about the IC50 ([3]; read-out: IC50, experiment 2) of the same compound?
Answer: 0.464 nM

Question: What about the IC50 ([3]; read-out: IC50, experiment 3) of the same compound?
Answer: 0.69 nM

Question: What about the EC50 [4] of the same compound?
Answer: > 10000 nM

Question: What about the CC50 [5] of the same compound?
Answer: > 10000 nM

Question: What about the IC50 [6] of the same compound?
Answer: > 10000 nM

Question: And the inhibition at 10 µM [6, 12]?
Answer: -27.8%

Question: What about the IC50 [7] of the same compound?
Answer: > 10000 nM

Question: What about the inhibition at 10 µM [7, 12] of the same compound?
Answer: 7.37%

Question: And the EC50 [8]?
Answer: > 10000 nM

Question: And the EC50 [9]?
Answer: > 12000 nM

Question: What about the “Activity at Maximum Concentration (%)” value ([9]; 12,000 nM) of the same compound?
Answer: −21.27%

Question: What about the IC50 [10] of the same compound?
Answer: > 10000 nM

Question: What about the inhibition at 10 µM [10, 12] of the same compound?
Answer: -33.2%

Question: And the IC50 [11]?
Answer: > 10000 nM

Question: And the “Inhibition at Maximum Concentration (%)” value ([11]; 10,000 nM)?
Answer: 43.84%

Source: PMC10056986 (Pharmaceuticals, 2023)
